The subject of this test is BDF1 mice, P388 leukemia ip, median survival T/C. The experiment in a line: NCI In Vivo Anticancer Drug Screen. Data for tumor model P388 Leukemia (intraperitoneal) in B6D2F1 (BDF1) mice. The conditions noted are these: endpoint: median survival time, higher = longer survival. In short, it runs like this: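 Compound-treated tumour-bearing mice were compared with vehicle-treated controls. Survival was recorded, and the value is the treated-group measurement divided by the control-group measurement (T/C).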

[1] abbreviates: dose: 100.0 mg/kg/injection, schedule: Q01DX009 (ip), vehicle: other.
The mark [2] stands for this setting: dose: 50.0 mg/kg/injection, schedule: Q04DX003 (ip), vehicle: saline with Tween-80.
[3] abbreviates: dose: 50.0 mg/kg/injection, schedule: Q01DX009 (ip), vehicle: saline with Tween-80.
Where [4] appears, read: dose: 100.0 mg/kg/injection, schedule: Q01DX009 (ip), vehicle: saline with Tween-80.
Where [5] appears, read: dose: 200.0 mg/kg/injection, schedule: Q01DX009 (ip), vehicle: saline with Tween-80.

Molecules are shown by their SMILES. Several values for one entry are separate records, joined by “and”; a condition that tells them apart may be missing. Equal values may be shown once. Toxic doses and inconclusive results are not listed.

With `O=C(O)C(O)C(O)C(O)C(O)C(=O)O` (stereo not given), the T/C is 100 % of control (dose: 50.0 mg/kg/injection, schedule: Q01DX010 (ip), vehicle: saline); 109 % of control (dose: 100.0 mg/kg/injection, schedule: Q01DX010 (ip), vehicle: saline); 100 % of control (dose: 200.0 mg/kg/injection, schedule: Q01DX010 (ip), vehicle: saline); 104 % of control (dose: 400.0 mg/kg/injection, schedule: Q01DX010 (ip), vehicle: saline); 88 % of control (dose: 600.0 mg/kg/injection, schedule: Q01DX010 (ip), vehicle: saline); 88 % of control (dose: 750.0 mg/kg/injection, schedule: Q01DX010 (ip), vehicle: saline).
As for `CCCCOC(=S)Nc1ccccc1`, the T/C by setting is: (dose: 50.0 mg/kg/injection, schedule: Q01DX009 (ip), vehicle: other) 100 % of control; under setting [1], 99 % of control.
Take `C1CCCCCC(NC2=NCCO2)CCCCC1`: the T/C reads like this: (dose: 3.13 mg/kg/injection, schedule: Q04DX003 (ip), vehicle: saline with Tween-80) 95 % of control; (dose: 6.25 mg/kg/injection, schedule: Q04DX003 (ip), vehicle: saline with Tween-80) 95 % of control; (dose: 12.5 mg/kg/injection, schedule: Q04DX003 (ip), vehicle: saline with Tween-80) 108 % of control; (dose: 25.0 mg/kg/injection, schedule: Q04DX003 (ip), vehicle: saline with Tween-80) 90 % of control; under setting [2], 90 % of control.
Consider `O=C(NC1=NN(c2ccccc2)C(=O)C1)C(Cl)c1ccccc1` (stereo not given), for which the T/C under setting [3] is 104 % of control, the T/C under setting [4] is 95 % of control and the T/C under setting [5] is 95 % of control.
Consider `CC1=CC(=O)[C@@H](O)[C@]2(C)[C@H]3[C@@]4(O)OC[C@]35[C@H]([C@@H](C)[C@H]4O)[C@@H](O)C(=O)O[C@@H]5C[C@@H]12`, for which the T/C was 150 % of control (dose: 1.0 mg/kg/injection, schedule: Q01DX010 (ip), vehicle: steriod suspending solution); 100 % of control (dose: 1.5 mg/kg/injection, schedule: Q01DX010 (ip), vehicle: acetone); 107 % of control (dose: 2.0 mg/kg/injection, schedule: Q01DX010 (ip), vehicle: steriod suspending solution); 103 % of control (dose: 3.0 mg/kg/injection, schedule: Q01DX010 (ip), vehicle: acetone); 107 % of control (dose: 4.0 mg/kg/injection, schedule: Q01DX010 (ip), vehicle: steriod suspending solution); 115 % of control (dose: 6.0 mg/kg/injection, schedule: Q01DX010 (ip), vehicle: acetone). For the same compound, the T/C by setting is: (dose: 8.0 mg/kg/injection, schedule: Q01DX010 (ip), vehicle: steriod suspending solution) 150 % of control; (dose: 12.0 mg/kg/injection, schedule: Q01DX010 (ip), vehicle: acetone) 123 % of control.
Consider `CS(=O)(=O)NC(=O)NC(=S)c1ccccc1`, for which the T/C was 100 % of control (dose: 100.0 mg/kg/injection, schedule: Q01DX001 (ip), vehicle: saline with Tween-80); 100 % of control (dose: 200.0 mg/kg/injection, schedule: Q01DX001 (ip), vehicle: saline with Tween-80); 108 % of control (dose: 400.0 mg/kg/injection, schedule: Q01DX001 (ip), vehicle: saline with Tween-80).
On to `CCCCn1cnc2c(=S)nc(N)[nH]c21`, for which the T/C was 109 % of control (dose: 12.5 mg/kg/injection, schedule: Q01DX009 (ip), vehicle: saline with Tween-80); 118 % of control (dose: 25.0 mg/kg/injection, schedule: Q01DX009 (ip), vehicle: saline with Tween-80); 100 % of control and 118 % of control (dose: 33.0 mg/kg/injection, schedule: Q04DX003 (ip), vehicle: saline with Tween-80); 118 % of control under setting [3]; 108 % of control and 118 % of control under setting [2]; 122 % of control (dose: 75.0 mg/kg/injection, schedule: Q04DX003 (ip), vehicle: saline with Tween-80).
On to `C/C=C(\C)C(=O)OCC1CC[N+](C)([O-])C1` (stereo not given), for which the T/C is, setting by setting: (dose: 50.0 mg/kg/injection, schedule: Q01DX009 (ip), vehicle: water) 103 % of control; (dose: 100.0 mg/kg/injection, schedule: Q01DX009 (ip), vehicle: water) 100 % of control; (dose: 200.0 mg/kg/injection, schedule: Q01DX009 (ip), vehicle: water) 103 % of control; (dose: 400.0 mg/kg/injection, schedule: Q01DX009 (ip), vehicle: water) 119 % of control.
Turning to `NC(=O)C1(C(N)=O)CCC1`, the T/C is, setting by setting: (dose: 100.0 mg/kg/injection, schedule: Q01DX009 (ip), vehicle: Klucel (hydroxypropylcellulose) (HPC)) 100 % of control; (dose: 100.0 mg/kg/injection, schedule: Q04DX003 (ip), vehicle: Klucel (hydroxypropylcellulose) (HPC)) 100 % of control; (dose: 200.0 mg/kg/injection, schedule: Q01DX009 (ip), vehicle: Klucel (hydroxypropylcellulose) (HPC)) 110 % of control; (dose: 200.0 mg/kg/injection, schedule: Q04DX003 (ip), vehicle: Klucel (hydroxypropylcellulose) (HPC)) 100 % of control; (dose: 400.0 mg/kg/injection, schedule: Q01DX009 (ip), vehicle: Klucel (hydroxypropylcellulose) (HPC)) 100 % of control; (dose: 400.0 mg/kg/injection, schedule: Q04DX003 (ip), vehicle: Klucel (hydroxypropylcellulose) (HPC)) 100 % of control.
Regarding `C(=NC12CC3CC(CC(C3)C1)C2)c1ccccc1`, the T/C runs as follows: (dose: 25.0 mg/kg/injection, schedule: Q04DX003 (ip), vehicle: saline) 105 % of control; (dose: 50.0 mg/kg/injection, schedule: Q04DX003 (ip), vehicle: saline) 99 % of control; (dose: 100.0 mg/kg/injection, schedule: Q04DX003 (ip), vehicle: saline) 107 % of control; (dose: 200.0 mg/kg/injection, schedule: Q04DX003 (ip), vehicle: saline) 105 % of control.
For `CCCCNC(=O)c1ccccc1Sc1ccccc1C(=O)NCCCC`, the T/C is, setting by setting: (dose: 100.0 mg/kg/injection, schedule: Q04DX002 (ip), vehicle: saline with Tween-80) 107 % of control; (dose: 200.0 mg/kg/injection, schedule: Q04DX002 (ip), vehicle: saline with Tween-80) 109 % of control; (dose: 400.0 mg/kg/injection, schedule: Q04DX002 (ip), vehicle: saline with Tween-80) 104 % of control.
Consider `COc1ccc(OC)c(NC(=O)C2CC2)c1`, for which the T/C was 100 % of control (dose: 75.0 mg/kg/injection, schedule: Q01DX009 (ip), vehicle: saline with Tween-80); 109 % of control (dose: 100.0 mg/kg/injection, schedule: Q04DX003 (ip), vehicle: saline sonified); 100 % of control (dose: 150.0 mg/kg/injection, schedule: Q01DX009 (ip), vehicle: saline with Tween-80); 113 % of control (dose: 200.0 mg/kg/injection, schedule: Q04DX003 (ip), vehicle: saline sonified); 100 % of control (dose: 300.0 mg/kg/injection, schedule: Q01DX009 (ip), vehicle: saline with Tween-80); 100 % of control (dose: 400.0 mg/kg/injection, schedule: Q04DX003 (ip), vehicle: saline sonified).
Regarding `COc1c(Cl)cc(Cl)cc1Cl`, the T/C runs as follows: under setting [1], 90 % of control; (dose: 100.0 mg/kg/injection, schedule: Q04DX003 (ip), vehicle: other) 90 % of control; (dose: 200.0 mg/kg/injection, schedule: Q01DX009 (ip), vehicle: other) 100 % of control; (dose: 200.0 mg/kg/injection, schedule: Q04DX003 (ip), vehicle: other) 105 % of control; (dose: 400.0 mg/kg/injection, schedule: Q01DX009 (ip), vehicle: other) 114 % of control; (dose: 400.0 mg/kg/injection, schedule: Q04DX003 (ip), vehicle: other) 110 % of control.
Consider `CSCC1(O)CCCCC1`, for which the T/C under setting [3] was 111 % of control, the T/C under setting [4] is 101 % of control and the T/C under setting [5] is 112 % of control.
